{"source": "patent US5364615A", "about": "(priority 1992, dated 1994)", "key": {"Pneumocystis carinii [1]": {"system": "Pneumocystis carinii", "assay": "Randomized clinical trial of PCP prophylaxis (Example 8)", "assay_type": "in vivo, human", "details": "for No PCP (participants) / PCP (participants) / Relative Hazard of PCP: Cox regression: prior PCP strata"}, "[2]": {"details": "human, in vivo", "description": "Chest radiographs and arterial blood gas tensions were obtained as clinically indicated."}, "[3]": {"assay": "Aerosol particle size of pentamidine", "assay_type": "physicochemical", "details": "for particle size (MMAD): Respirgard II", "description": "A compressed oxygen (5-7 L/min at 345 kPa, 50 psi) powered nebulizer produces the aerosol and one-way valves provide for entrainment of room air in patients whose minute ventilation is high, act as a baffle to decrease particle size, and direct expired air to a filter which removes the remaining particles of drug thereby preventing environmental contamination.\nParticles were sized with a 7 stage Mercer cascade impactor (Intox Products, Albuquerque, N. Mex.). The gas supply was 6 L/min, the sample stream was not dried, and the impactor flow rates were 0.5 L/min. […] Results from the average of three determinations at each location were expressed as mass median aerodynamic diameter ±geometric standard deviation (MMAD±GSD). Raabe, J Aerosol Sci (1971) Z:289-303."}, "[4]": {"details": "in vivo"}, "Pneumocystis carinii [5]": {"system": "Pneumocystis carinii", "assay": "Prevention of PCP, different dosages and regimens (Example 6)", "assay_type": "in vivo, human", "description": "A total of 438 participants were selected on the basis of seropositivity for HIV, and were stratified on the basis of (i) prior PCP (n=250), (ii) Kaposi's sarcoma (n=59), or (iii) ARC (n=129)."}, "[6]": {"details": "cited from earlier work"}, "Side effects (Example 6)": {"assay": "Side effects (Example 6)", "assay_type": "in vivo, human"}, "[7]": {"details": "literature, cited from earlier work"}, "[8]": {"details": "eligible, confirmed PCP within 60 days, 300 mg, p .002 (30 vs 300 mg)"}, "[9]": {"details": "intention to treat, all PCP, 30 mg"}, "[10]": {"details": "intention to treat, all PCP, 150 mg"}, "[11]": {"details": "intention to treat, all PCP, 300 mg, p .02 (30 vs 300 mg)"}, "[12]": {"details": "distal to the nebulizer (point A)"}, "[13]": {"details": "group b, 150 mg every two weeks"}, "[14]": {"details": "group c, 300 mg every four weeks"}, "[15]": {"details": "intravenous 4 mg/Kg, 18-24 h, per patient, 4 mg/kg"}}, "note": "“And” between values parts separate entries of the source, which are not always exact repeats. Equal entries are not always repeated. Where two headings read alike, the source gives them in different places.", "data": [{"smiles": "N=C(N)c1ccc(OCCCCCOc2ccc(C(=N)N)cc2)cc1", "note": "[pentamidine, p,p'-(pentamethylenedioxy)dibenzamidine]", "values": [{"measurement": "No PCP (participants)", "setting": "Pneumocystis carinii [1]; [8]", "value": 66}, {"measurement": "PCP (participants)", "setting": "Pneumocystis carinii [1]; [8]", "value": 8}, {"measurement": "No PCP (participants)", "setting": "Pneumocystis carinii [1]; [9]", "value": 46}, {"measurement": "PCP (participants)", "setting": "Pneumocystis carinii [1]; [9]", "value": 33}, {"measurement": "No PCP (participants)", "setting": "Pneumocystis carinii [1]; [10]", "value": 54}, {"measurement": "PCP (participants)", "setting": "Pneumocystis carinii [1]; [10]", "value": 24}, {"measurement": "No PCP (participants)", "setting": "Pneumocystis carinii [1]; [11]", "value": 59}, {"measurement": "PCP (participants)", "setting": "Pneumocystis carinii [1]; [11]", "value": 21}, {"measurement": "Relative Hazard of PCP: Cox regression", "setting": "Pneumocystis carinii [1]; intention to treat, 30 vs 300", "value": 2.11}, {"measurement": "Relative Hazard of PCP: Cox regression", "setting": "Pneumocystis carinii [1]; intention to treat, 30 vs. 150", "value": 1.40}, {"measurement": "all cause mortality", "setting": "Pneumocystis carinii [1]; prior PCP stratum", "value": 53, "unit": "%"}, {"measurement": "hazard of PCP by start of therapy", "setting": "Pneumocystis carinii [1]; start within 3 months of prior PCP vs later, Cox model", "value": "less than half the hazard of PCP"}, {"measurement": "time to PCP relapse, median", "setting": "Pneumocystis carinii [1]; starting prophylaxis within 3 months of prior PCP", "value": 240, "unit": "days"}, {"measurement": "time to PCP relapse, median", "setting": "Pneumocystis carinii [1]; starting with a longer interval since prior episode", "value": 143, "unit": "days"}, {"measurement": "severe adverse reactions", "setting": "[2]", "value": "No patient developed any severe adverse reactions"}, {"measurement": "particle size (MMAD ± GSD)", "setting": "[3]; Example 3, nebulizer of Example 2, 600 mg in 6 mL", "value": "1.42±1.88", "unit": "μm"}, {"measurement": "mass of particles larger than 4 μm", "setting": "[3]; at the mouthpiece (point B)", "value": "less than 5%"}, {"measurement": "particle size (MMAD)", "setting": "[3]; at the mouthpiece (point B)", "value": 1.42, "unit": "μm"}, {"measurement": "mass of particles larger than 4 μm", "setting": "[3]; [12]", "value": "greater than 20%"}, {"measurement": "particle size (MMAD)", "setting": "[3]; [12]", "value": 2.38, "unit": "μm"}, {"measurement": "pentamidine distal to the exhalation filter", "setting": "[3]; point C", "value": "No pentamidine was found distal to the exhalation filter"}, {"measurement": "hypotension or dysglycemia", "setting": "[4]", "value": "no episodes of hypotension or dysglycemia"}, {"measurement": "inhalation-associated cough", "setting": "[4]", "value": "Eight of thirteen patients (four of whom also experienced bronchospasm) had mild inhalation-associated cough"}, {"measurement": "reversible bronchospasm", "setting": "[4]", "value": "occurred in five patients"}, {"measurement": "mortality rate", "setting": "Pneumocystis carinii [5]; 372 participants", "value": 1.6, "unit": "%"}, {"measurement": "relapse rate", "setting": "Pneumocystis carinii [5]; 372 participants, at least one treatment", "value": 4.6, "unit": "%"}, {"measurement": "deaths due to PCP", "setting": "Pneumocystis carinii [5]; ARC, group a, 30 mg", "value": 1}, {"measurement": "PCP Events", "setting": "Pneumocystis carinii [5]; ARC, group a, 30 mg every two weeks", "value": 2}, {"measurement": "PCP Events", "setting": "Pneumocystis carinii [5]; ARC, group b, 150 mg every two weeks", "value": 0}, {"measurement": "PCP Events", "setting": "Pneumocystis carinii [5]; ARC, group c, 300 mg every four weeks", "value": 0}, {"measurement": "PCP Events", "setting": "Pneumocystis carinii [5]; Kaposi's, group a, 30 mg every two weeks", "value": 0}, {"measurement": "PCP Events", "setting": "Pneumocystis carinii [5]; Kaposi's, group b, 150 mg every two weeks", "value": 1}, {"measurement": "PCP Events", "setting": "Pneumocystis carinii [5]; Kaposi's, group c, 300 mg every four weeks", "value": 0}, {"measurement": "relapse rate", "setting": "Pneumocystis carinii [5]; at least three treatments", "value": 3.2, "unit": "%"}, {"measurement": "participants experiencing relapse", "setting": "Pneumocystis carinii [5]; of 372 participants", "value": 17}, {"measurement": "relapse rate", "setting": "Pneumocystis carinii [5]; prior PCP, at least one treatment, historical controls 24.3%", "value": 5.9, "unit": "%"}, {"measurement": "relapse rate", "setting": "Pneumocystis carinii [5]; prior PCP, three or more treatments", "value": 4.2, "unit": "%"}, {"measurement": "deaths due to PCP", "setting": "Pneumocystis carinii [5]; prior PCP, group a, 30 mg", "value": 1}, {"measurement": "PCP Events", "setting": "Pneumocystis carinii [5]; prior PCP, group a, 30 mg every two weeks", "value": 6}, {"measurement": "deaths due to PCP", "setting": "Pneumocystis carinii [5]; prior PCP, group b, 150 mg", "value": 3}, {"measurement": "PCP Events", "setting": "Pneumocystis carinii [5]; prior PCP, group b, 150 mg every two weeks", "value": 5}, {"measurement": "deaths due to PCP", "setting": "Pneumocystis carinii [5]; prior PCP, group c, 300 mg", "value": 1}, {"measurement": "PCP Events", "setting": "Pneumocystis carinii [5]; prior PCP, group c, 300 mg every four weeks", "value": 3}, {"measurement": "patients developing severe toxicity requiring discontinuation", "setting": "[6]; TMP-SMX oral/parenteral or pentamidine isethionate parenteral", "value": "approximately 50%"}, {"measurement": "side effects", "setting": "[6]; parenteral pentamidine", "value": "elevation of liver enzymes, hematologic disturbances with neutropenia and thrombocytopenia, fever, hypocalcemia, and hallucinations"}, {"measurement": "impaired renal function", "setting": "[6]; patients receiving (parenteral) pentamidine", "value": "about 25%"}, {"measurement": "withdrawals due to toxicity", "setting": "Side effects (Example 6); all groups", "value": "no withdrawals due to toxicity"}, {"measurement": "Cough", "setting": "Side effects (Example 6); group a, 30 mg every two weeks", "value": 25, "unit": "%"}, {"measurement": "Metallic Taste", "setting": "Side effects (Example 6); group a, 30 mg every two weeks", "value": 11, "unit": "%"}, {"measurement": "Wheezing", "setting": "Side effects (Example 6); group a, 30 mg every two weeks", "value": 10, "unit": "%"}, {"measurement": "Cough", "setting": "Side effects (Example 6); [13]", "value": 34, "unit": "%"}, {"measurement": "Metallic Taste", "setting": "Side effects (Example 6); [13]", "value": 16, "unit": "%"}, {"measurement": "Wheezing", "setting": "Side effects (Example 6); [13]", "value": 14, "unit": "%"}, {"measurement": "Cough", "setting": "Side effects (Example 6); [14]", "value": 34, "unit": "%"}, {"measurement": "Metallic Taste", "setting": "Side effects (Example 6); [14]", "value": 20, "unit": "%"}, {"measurement": "Wheezing", "setting": "Side effects (Example 6); [14]", "value": 14, "unit": "%"}, {"measurement": "Toxicity Req Change of Therapy, %", "setting": "[7]", "value": 55, "unit": "%"}, {"measurement": "rate of severe reactions", "setting": "[7]; parenteral pentamidine, TMP-SMX", "value": 50, "unit": "%"}, {"measurement": "BAL sediment concentration, aerosol vs intravenous", "setting": "18-24 h", "value": "10-100 fold"}, {"measurement": "mean BAL supernatant (aerosol) vs BAL sediment (intravenous), factor", "setting": "18-24 h", "value": "more than 2"}, {"measurement": "BAL sediment concentration, Mean ± SEM", "setting": "aerosol 300 mg, 18-24 h", "value": "705 ± 242", "unit": "ng/mL"}, {"measurement": "BAL supernatant concentration, Mean ± SEM", "setting": "aerosol 300 mg, 18-24 h", "value": "23.2 ± 7.75", "unit": "ng/mL"}, {"measurement": "systemic absorption", "setting": "after aerosol administration", "value": "Little or no systemic absorption was detectable"}, {"measurement": "BAL sediment concentration, Mean ± SEM", "setting": "intravenous 4 mg/Kg, 18-24 h", "value": "9.34 ± 1.74", "unit": "ng/mL"}, {"measurement": "BAL supernatant concentration, Mean ± SEM", "setting": "intravenous 4 mg/Kg, 18-24 h", "value": "2.64 ± 0.73", "unit": "ng/mL"}, {"measurement": "BAL sediment concentration", "setting": "[15]", "value": "12.8 ng/mL and 6.89 ng/mL and 8.35 ng/mL"}, {"measurement": "BAL supernatant concentration", "setting": "[15]", "value": "1.48 ng/mL and 2.44 ng/mL and 4.0 ng/mL"}, {"measurement": "response to standard therapy", "setting": "patients infected with P. carinii, either intravenous pentamidine or TMP-SMX", "value": "All patients infected with P. carinii responded to standard therapy"}]}]}
